For 22 compounds, IC50 results are on record in US10399972B2, “Tricyclic compounds as inhibitors of mutant IDH enzymes” (Merck Sharp & Dohme Corp., priority 2015, dated 2019).

By pIC50 is commonly meant the IC50 on a negative log10 scale, so that one unit is a factor of ten. The low end stands for a large IC50, the high end for a small IC50.

Each structure is given as a SMILES string. pIC50: −log10 of the molar value.

Chain of R132H mutant IDH1 enzyme (O75874 whole entry R132H): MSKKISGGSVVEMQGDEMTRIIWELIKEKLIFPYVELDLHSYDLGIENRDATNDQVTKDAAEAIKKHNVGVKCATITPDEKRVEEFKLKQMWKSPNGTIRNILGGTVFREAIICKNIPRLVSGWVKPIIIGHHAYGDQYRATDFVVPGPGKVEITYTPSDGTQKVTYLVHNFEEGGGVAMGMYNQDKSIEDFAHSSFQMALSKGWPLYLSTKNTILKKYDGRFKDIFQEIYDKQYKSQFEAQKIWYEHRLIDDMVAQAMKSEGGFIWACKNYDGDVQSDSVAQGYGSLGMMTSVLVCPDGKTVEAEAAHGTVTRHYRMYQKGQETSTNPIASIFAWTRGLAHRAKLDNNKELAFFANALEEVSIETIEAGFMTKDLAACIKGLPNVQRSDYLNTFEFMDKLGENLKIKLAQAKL

The target of the assay is R132H mutant IDH1 enzyme (Homo sapiens (Human), UniProt O75874, R132H). Briefly: R132H IDH1 Enzymatic Assay. The assay is classed as biochemical. The note with it: 1.5 nM final, 30 min preincubation, 60 min reaction, Kinase-GLO luminescence. As to the method:
R132H IDH1 Enzymatic Assay
Each test compound (10 mM stock in DMSO) is diluted in DMSO to make a 10-point, 3-fold dilution series. 125 nL of each dilution or DMSO alone is dispensed to a 384-well Greiner Lumitrac 200 assay plate using an Echo® Liquid Handler. To each well of the plate is added 20 uL of enzyme in assay buffer or assay buffer alone. Assay buffer consists of 50 mM sodium phosphate, pH 7.0, 50 mM magnesium chloride, 50 mM sodium chloride, and 0.01% (w/v) bovine serum albumin. When present, the R132H mutant IDH1 enzyme is at a working concentration of 1.875 nM (final concentration in assay of 1.5 nM). The assay plate is allowed to incubate for 30 minutes at room temperature and 5 uL of 5× substrate mixture (2.5 uM nicotinamide adenine dinucleotide phosphate, 100 uM adenosine diphosphate, 7.5 mM glyceraldehyde-3-phosphate, 7.5 ug/mL of spinach glyceraldehyde-3-phosphate dehydrogenase, 25 nM phosphoglycerate kinase, and 5 mM alpha-ketoglutarate in assay buffer) is added to all wells. The reaction plate is incubated for 60 minutes followed by addition of 25 uL of Promega Kinase-GLO reagent to all wells and 10-minute incubation.
Luminescence is measured using a PerkinElmer Envision plate reader. The percent activity of each dilution is determined as the ratio of background corrected signal to the background corrected signal of wells receiving only DMSO. IC50 values are determined by fitting percent activity data to a four-parameter logistic dose response equation. The IC50 values of the exemplified compounds are included in Table 8.
`O=C(C1CCN(CC(F)(F)F)CC1)N1Cc2cc(F)cnc2Nc2ccc(N3C[C@@H]4C[C@H]3CO4)cc21` [Example 6, (8-((1S,4S)-2-Oxa-5-azabicyclo[2.2.1]heptan-5-yl)-3-fluoro-5,11-dihydro-6H-benzo[b]pyrido[2,3-e][1,4]diazepin-6-yl)(1-(2,2,2-trifluoroethyl)piperidin-4-yl)methanone] showed a pIC50 of 7.92. The result for `O=C(C1CCN(CC(F)(F)F)CC1)N1Cc2cc(F)cnc2Nc2cc(F)c(N3CC4CCC3CO4)cc21` (stereo not shown) [Example 29, (8-(2-oxa-5-azabicyclo[2.2.2]octan-5-yl)-3,9-difluoro-5,11-dihydro-6H-benzo[b]pyrido[2,3-e][1,4]diazepin-6-yl)(1-(2,2,2-trifluoroethyl)piperidin-4-yl)methanone] reads 8.00; that for `O=C(C1CCN(CC(F)(F)F)CC1)N1Cc2cc(F)cnc2Nc2ccc([C@@H]3COCCO3)cc21` [Example 55, (R)-(8-(1,4-dioxan-2-yl)-3-fluoro-5,11-dihydro-6H-benzo[b]pyrido[2,3-e][1,4]diazepin-6-yl)(1-(2,2,2-trifluoroethyl)piperidin-4-yl)methanone], 8.19. The compound `CC(C)O[C@H]1CC[C@H](C(=O)N2Cc3cc(F)cnc3Nc3ccc(N4C[C@H]5COC[C@@H](C4)O5)cc32)OC1` [Example 41, (8-((1R,5S)-3,9-dioxa-7-azabicyclo[3.3.1]nonan-7-yl)-3-fluoro-5,11-dihydro-6H-benzo[b]pyrido[2,3-e][1,4]diazepin-6-yl)((2R,5S)-5-isopropoxytetrahydro-2H-pyran-2-yl)methanone] had a pIC50 of 7.68. The result for `O=C(C1CCN(CC(F)(F)F)CC1)N1Cc2cc(F)cnc2Nc2ccc([C@H]3COCCO3)cc21` [Example 54, (S)-(8-(1,4-Dioxan-2-yl)-3-fluoro-5,11-dihydro-6H-benzo[b]pyrido[2,3-e][1,4]diazepin-6-yl)(1-(2,2,2-trifluoroethyl)piperidin-4-yl)methanone] reads 8.25. For the compound `CO[C@H]1C[C@H]2CC[C@@H](C1)N2c1cc2c(cc1F)Nc1ncc(F)cc1CN2C(=O)[C@H]1CC[C@H](OC(C)C)CO1` [Example 47, (3,9-difluoro-8-((1R,3S,5S)-3-methoxy-8-azabicyclo[3.2.1]octan-8-yl)-5,11-dihydro-6H-benzo[b]pyrido[2,3-e][1,4]diazepin-6-yl)((2R,5S)-5-isopropoxytetrahydro-2H-pyran-2-yl)methanone], the pIC50 was 7.80. The result for `CC(C)O[C@H]1CC[C@H](C(=O)N2Cc3cc(F)cnc3Nc3ccc(N4CC5(CCCOC5)C4)cc32)OC1` [Example 40, (3-fluoro-8-(6-oxa-2-azaspiro[3.5]nonan-2-yl)-5,11-dihydro-6H-benzo[b]pyrido[2,3-e][1,4]diazepin-6-yl)((2R,5S)-5-isopropoxytetrahydro-2H-pyran-2-yl)methanone] reads 7.59; that for `C[C@H]1CN(c2ccc3c(c2)N(C(=O)C2CCN(CC(F)(F)F)CC2)Cc2cc(F)cnc2N3)[C@@H](C)CO1` [Example 11, (8-((2S,5S)-2,5-dimethylmorpholino)-3-fluoro-5,11-dihydro-6H-benzo[b]pyrido[2,3-e][1,4]diazepin-6-yl)(1-(2,2,2-trifluoroethyl)piperidin-4-yl)methanone], 7.62. The result for `CC(C)O[C@H]1CC[C@H](C(=O)N2Cc3cccnc3Nc3cc(F)c(N4CC5CCC4CO5)cc32)CC1` (stereo partly drawn) [Example 62, [9-fluoro-8-(2-oxa-5-azabicyclo[2.2.2]oct-5-yl)-5,11-dihydro-6H-pyrido[2,3-b][1,5]benzodiazepin-6-yl](trans-4-isopropoxycyclohexyl)methanone] reads 7.45. On to `CO[C@H]1C[C@H]2CC[C@@H](C1)N2c1ccc2c(c1)N(C(=O)C1CCN(CC(F)(F)F)CC1)Cc1cc(F)cnc1N2` [Example 10, (3-fluoro-8-((1R,3r,5S)-3-methoxy-8-azabicyclo[3.2.1]octan-8-yl)-5,11-dihydro-6H-benzo[b]pyrido[2,3-e][1,4]diazepin-6-yl)(1-(2,2,2-trifluoroethyl)piperidin-4-yl)methanone], for which the pIC50 was 8.21. This pIC50 is 0.76 log units higher than that of the compound before. The result for `O=C(C1CCN(CC(F)(F)F)CC1)N1Cc2cc(F)cnc2Nc2ccc(N3C[C@H]4COC[C@@H](C3)O4)cc21` [Example 15, (8-((1R,5S)-3,9-dioxa-7-azabicyclo[3.3.1]nonan-7-yl)-3-fluoro-5,11-dihydro-6H-benzo[b]pyrido[2,3-e][1,4]diazepin-6-yl)(1-(2,2,2-trifluoroethyl)piperidin-4-yl)methanone] reads 7.08. The value for `O=C(C1CCN(CC(F)(F)F)CC1)N1Cc2cc(F)cnc2Nc2cc(F)c(N3[C@@H]4CO[C@H]5[C@@H]4OC[C@H]53)cc21` [Example 22, (3,9-difluoro-8-((3R,3aR,6R,6aR)-hexahydro-3,6-epiminofuro[3,2-b]furan-7-yl)-5,11-dihydro-6H-benzo[b]pyrido[2,3-e][1,4]diazepin-6-yl)(1-(2,2,2-trifluoroethyl)piperidin-4-yl)methanone] was 8.38.

`Cc1cc2c(cc1N1C[C@H]3CC[C@@H]1CO3)N(C(=O)[C@H]1CC[C@H](OC(C)C)CC1)Cc1cccnc1N2` [Example 60, (trans-4-isopropoxycyclohexyl){9-methyl-8-[(1R,4R)-2-oxa-5-azabicyclo[2.2.2]oct-5-yl]-5,11-dihydro-6H-pyrido[2,3-b][1,5]benzodiazepin-6-yl}methanone]: the pIC50 is 7.59. The value for `CC(C)O[C@H]1CC[C@H](C(=O)N2Cc3cc(F)cnc3Nc3cc(F)c(N4C5CCC4COC5)cc32)CC1` [Example 26, [3,9-difluoro-8-(3-oxa-8-azabicyclo[3.2.1]oct-8-yl)-5,11-dihydro-6H-pyrido[2,3-b][1,5]benzodiazepin-6-yl][trans-4-(propan-2-yloxy)cyclohexyl]methanone] was 7.86.

Take `CC(C)O[C@H]1CC[C@H](C(=O)N2Cc3cc(F)cnc3Nc3ccc(N4CC5CCC4CO5)cc32)CC1` (single isomer, unassigned) [Example 14, [3-fluoro-8-(2-oxa-5-azabicyclo[2.2.2]oct-5-yl)-5,11-dihydro-6H-pyrido[2,3-b][1,5]benzodiazepin-6-yl][trans-4-(propan-2-yloxy)cyclohexyl]methanone]: the pIC50 was 7.35. The value for `O=C(C1CCN(CC(F)(F)F)CC1)N1Cc2cc(F)cnc2Nc2ccc(N3CC4CCC3CO4)cc21` (single isomer, unassigned) [Example 9, (8-(2-oxa-5-azabicyclo[2.2.2]octan-5-yl)-3-fluoro-5,11-dihydro-6H-benzo[b]pyrido[2,3-e][1,4]diazepin-6-yl)(1-(2,2,2-trifluoroethyl)piperidin-4-yl)methanone] was 7.66.

The compound `CC(C)O[C@H]1CC[C@H](C(=O)N2Cc3cc(F)cnc3Nc3ccc(N4CC5CCC4CO5)cc32)CC1` (single isomer, unassigned) [Example 13, [3-fluoro-8-(2-oxa-5-azabicyclo[2.2.2]oct-5-yl)-5,11-dihydro-6H-pyrido[2,3-b][1,5]benzodiazepin-6-yl][trans-4-(propan-2-yloxy)cyclohexyl]methanone] gave a pIC50 of 7.45. The value for `O=C(C1CCN(CC(F)(F)F)CC1)N1Cc2cccnc2Nc2cc(F)c(N3[C@@H]4CO[C@H]5[C@@H]4OC[C@H]53)cc21` [Example 28, (9-fluoro-8-((3R,3aR,6R,6aR)-hexahydro-3,6-epiminofuro[3,2-b]furan-7-yl)-5,11-dihydro-6H-benzo[b]pyrido[2,3-e][1,4]diazepin-6-yl)(1-(2,2,2-trifluoroethyl)piperidin-4-yl)methanone] was 7.56; that for `CO[C@H]1C[C@H]2CC[C@@H](C1)N2c1ccc2c(c1)N(C(=O)[C@H]1CC[C@H](OC(C)C)CO1)Cc1cc(F)cnc1N2` [Example 39, (3-fluoro-8-((1R,3S,5S)-3-methoxy-8-azabicyclo[3.2.1]octan-8-yl)-5,11-dihydro-6H-benzo[b]pyrido[2,3-e][1,4]diazepin-6-yl)((2R,5S)-5-isopropoxytetrahydro-2H-pyran-2-yl)methanone] was 7.98.

As to `O=C(C1CCN(CC(F)(F)F)CC1)N1Cc2cc(F)cnc2Nc2cc(F)c(N3C[C@@H]4C[C@H]3CO4)cc21` [Example 20, (8-((1S,4S)-2-oxa-5-azabicyclo[2.2.1]heptan-5-yl)-3,9-difluoro-5,11-dihydro-6H-benzo[b]pyrido[2,3-e][1,4]diazepin-6-yl)(1-(2,2,2-trifluoroethyl)piperidin-4-yl)methanone], the pIC50 is 8.17. As for `CC(C)O[C@H]1CC[C@H](C(=O)N2Cc3cc(F)cnc3Nc3ccc(N4C[C@@H]5C[C@H]4CO5)cc32)CC1` [Example 18, (8-((1S,4S)-2-oxa-5-azabicyclo[2.2.1]heptan-5-yl)-3-fluoro-5,11-dihydro-6H-benzo[b]pyrido[2,3-e][1,4]diazepin-6-yl)(trans-4-isopropoxycyclohexyl)methanone], the pIC50 is 8.07. The value for `Cc1cc2c(cc1N1C[C@@H]3CC[C@H]1CO3)N(C(=O)[C@H]1CC[C@H](OC(C)C)CC1)Cc1cccnc1N2` [Example 58, (trans-4-isopropoxycyclohexyl){9-methyl-8-[(1S,4S)-2-oxa-5-azabicyclo[2.2.2]oct-5-yl]-5,11-dihydro-6H-pyrido[2,3-b][1,5]benzodiazepin-6-yl}methanone] was 7.74.
